The values that follow come from patent US8497263B2, “Pyrrolinone derivative and pharmaceutical composition comprising the same” (Shionogi & Co., Ltd., priority 2007, dated 2013).

As for `COc1ccc(C(=O)C2=C(O)C(=O)N(c3ccc(-c4ccon4)cc3)C2c2ccc(Cl)cc2)cc1` (stereo not drawn) [Example I-11], the melting point is 268 to 270 °C (dec.). To `COc1ccc(C(=O)C2=C(O)C(=O)N(c3ccc(-c4noc(C)n4)cc3)C2c2ccc(F)cc2)cc1` (stereo not drawn) [Example I-14] belongs 236 to 239 °C. `COc1ccc(C(=O)C2C(=O)C(=O)N(c3ccc(-c4ccon4)cc3)C2c2ccc(F)cc2)cc1` (stereo not drawn) [Example I-18]: the melting point was 269 to 274 °C (dec.).

Turning to `COc1ccc(C(=O)C2=C(O)C(=O)N(c3ccc(-c4ccon4)cc3)C2c2cccc(F)c2)cc1` (stereo not drawn) [Example I-26, 5-(3-fluorophenyl)-3-hydroxy-1-(4-isoxazol-3-ylphenyl)-4-(4-methoxybenzoyl)-1,5-dihydropyrrol-2-one], the melting point is 273 to 274 °C (dec.).

On to `COc1ccc(C(=O)C2=C(O)C(=O)N(c3ccc(-c4ccon4)cc3)C2c2cccc(Cl)c2)cc1` (stereo not drawn) [Example I-27], for which the melting point lay within 238 to 240 °C.

For `COc1ccc(C(=O)C2=C(O)C(=O)N(c3ccc(-c4ccon4)cc3)C2c2ccccc2F)cc1` (stereo not drawn) [Example I-31], the melting point was 270 to 271 °C (dec.). Under `CC(C)(C)C(=O)C1=C(O)C(=O)N(c2ccc(-c3ccon3)cc2)C1C1CCCCC1` (stereo not drawn) [Example I-32, 5-cyclohexyl-4-(2,2-dimethylpropionoyl)-3-hydroxy-1-(4-isoxazol-3-ylphenyl)-1,5-dihydropyrrol-2-one] stands 259 to 260 °C; under `COc1ccc(C(=O)C2=C(O)C(=O)N(c3ccc(C(F)(F)F)cc3)C2c2ccc(F)cc2)cc1` (stereo not drawn) [Example I-34], 253 to 256 °C (dec.). To `COc1ccc(C(=O)C2C(=O)C(=O)N(c3ccc(-c4ccon4)cc3)C2c2ccccc2Cl)cc1` (stereo not drawn) [Example I-40] belongs 254 to 258 °C (dec.); to `COc1ccc(C(=O)C2=C(O)C(=O)N(c3ccc(-c4ccon4)cc3)C2c2cccc(OC)c2)cc1` (stereo not drawn) [Example I-46], 238 to 240 °C; to `COc1ccc(C(=O)C2=C(O)C(=O)N(c3ccc(-c4ccon4)cc3)C2c2ccccc2)cc1` (stereo not drawn) [Example I-50], 271 to 274 °C. On to `CC(C)(C)C(=O)C1=C(O)C(=O)N(c2ccc(C(F)(F)F)cc2)C1C1CCCCC1` (stereo not drawn) [Example I-56], for which the melting point was in the range of 238 to 239 °C. As for `COc1ccc(C(=O)C2C(=O)C(=O)N(c3ccc(-c4cnco4)cc3)C2c2ccc(F)cc2)cc1` (stereo not drawn) [Example I-64], the melting point was in the range of 245 to 246 °C. Under `COc1ccc(C(=O)C2C(=O)C(=O)N(c3ccc(OC)cc3)C2c2ccc(F)cc2)cc1` (stereo not drawn) [Example I-73] stands 245 to 247 °C; under `COc1ccc(C(=O)C2C(=O)C(=O)N(c3ccc(-c4cnco4)cc3)C2c2ccccc2)cc1` (stereo not drawn) [Example I-78], 253 to 254 °C; under `COc1ccc(C(=O)C2=C(O)C(=O)N(c3ccc(C(=O)O)cc3)C2c2ccccc2)cc1` (stereo not drawn) [Example I-87], 268 to 271 °C. In turn, `COc1ccc(C(=O)C2=C(O)C(=O)N(c3cccc(-c4ccon4)c3)C2c2ccc(F)cc2)cc1` (stereo not drawn) [Example I-185] yielded a melting point of 193 to 196 °C. Compound `CC(C)(C)C(=O)C1/C(=N/O)C(=O)N(c2ccc(-c3ccon3)cc2)C1C1CCCCC1` (stereo not drawn) [Example I-193] yielded a melting point of 255 to 256 °C.

For the compound `CC(C)(C)c1n[nH]c2c1C(C1CCCCC1)N(c1ccc(C(F)(F)F)cc1)C2=O` (stereo not drawn) [Example I-194], the melting point was in the range of 245 to 246 °C. Under `CCC(CC)C1c2c(-c3ccc(=O)[nH]c3)n[nH]c2C(=O)N1c1ccc(-c2ccon2)cc1` (stereo not drawn) [Example I-198, 4-(1-ethylpropyl)-5-(4-isoxazol-3-ylphenyl)-3-(6-oxo-1,6-dihydropyridin-3-yl)-4,5-dihydro-1H-pyrrolo[3,4-c]pyrazol-6-one] stands greater than 290 °C.

As to `COc1ccc(C2C(Cc3ccccc3)=C(O)C(=O)N2c2ccc(F)cc2)cc1` (stereo not drawn) [Example I-202], the melting point is 177 to 178 °C. As to `CCOC(=O)c1ccc(N2C(=O)C(O)=C(Cc3ccccc3)C2c2ccc(OC)cc2)cc1` (stereo not drawn) [Example I-203], the melting point was 160 to 161 °C. As for `COc1ccc(C(=O)C2=C(O)C(=O)N(Cc3ccc(C(F)(F)F)cc3)C2c2ccc(F)cc2)cc1` (stereo not drawn) [Example I-204], the melting point was 234 to 237 °C.

As for `CCC(CC)C1C(C(=O)c2ccc(OC)nc2)=C(O)C(=O)N1c1ccc(-c2ccon2)cc1` (stereo not drawn) [Example I-207], the melting point was in the range of 246 to 249 °C. As for `CCC(CC)C1C(C(=O)c2ccc(=O)[nH]c2)=C(O)C(=O)N1c1ccc(-c2ccon2)cc1` (stereo not drawn) [Example I-208], the melting point was greater than 290 °C. Under `CO/N=C/c1ccc(N2C(=O)C(O)=C(C(=O)c3ccc(OC)cc3)C2c2ccc(F)cc2)cc1` (stereo not drawn) [Example I-209] stands 232 to 235 °C.

`COc1ccc(-c2n[nH]c3c2C(c2ccc(F)cc2)N(c2ccc(-c4ccon4)cc2)C3=O)cc1` (stereo not drawn) [Example I-210]: the melting point lay within 164 to 166 °C. Under `CCC(CC)C1c2c(-c3ccc(OC)nc3)n[nH]c2C(=O)N1c1ccc(-c2ccon2)cc1` (stereo not drawn) [Example I-211] stands 226 to 228 °C; under `COc1ccc(C(=O)C2=C(O)C(=O)N(c3ccc(-c4nnco4)cc3)C2c2ccc(F)cc2)cc1` (stereo not drawn) [Example I-213], 244 to 247 °C; under `CCCC(C)C1C(C(=O)c2ccc(OC)cc2)=C(O)C(=O)N1c1ccc(-c2ccon2)cc1` (stereo not drawn) [Example I-214], 227 to 232 °C. To `CCCCC(CCCC)C1C(C(=O)c2ccc(OC)cc2)=C(O)C(=O)N1c1ccc(-c2ccon2)cc1` (stereo not drawn) [Example I-215] belongs 207 to 210 °C. On to `COc1ccc(C(=O)C2=C(O)C(=O)N(c3ccc(C4=NCCS4)cc3)C2c2ccc(F)cc2)cc1` (stereo not drawn) [Example I-216], for which the melting point is 229 to 232 °C. Turning to `COc1ccc(C(=O)C2=C(OCc3ccccc3)C(=O)N(c3ccc(C(F)(F)F)cc3)C2c2ccccc2)cc1` (stereo not drawn) [Example I-217], the melting point fell in the range of 173 to 174 °C. `COc1ccc(C(=O)C2=C(O)C(=O)N(c3ccc(-c4cc(C)no4)cc3)C2c2ccc(F)cc2)cc1` (stereo not drawn) [Example I-219] yielded a melting point of 249 to 252 °C.

In turn, `CCCC(CCC)C1C(C(=O)c2ccc(OC)cc2)=C(O)C(=O)N1c1ccc(-c2ccon2)cc1` (stereo not drawn) [Example I-220] registered a melting point of 229 to 231 °C. In turn, `COc1ccc(C(=O)C2=C(O)C(=O)N(c3ccc(-c4ccon4)cc3)C2C(C)c2ccccc2)cc1` (stereo not drawn) [Example I-221] gave a melting point of 241 to 244 °C. Under `COc1ccc(C(=O)C2=C(O)C(=O)N(c3ccc(-c4ccon4)cc3)C2C2CCN(C(=O)OC(C)(C)C)CC2)cc1` (stereo not drawn) [Example I-222] stands 247 to 249 °C; under `COc1ccc(C(=O)C2=C(O)C(=O)N(c3ccc(-c4ccon4)cc3)C2C2CCOCC2)cc1` (stereo not drawn) [Example I-224], 268 to 272 °C. Regarding `CCOC(=O)c1ccc(N2C(=O)C(OCc3ccccc3)=C(C(=NO)c3ccc(OC)cc3)C2c2ccccc2)cc1` (stereo not drawn) [Example I-225], the melting point fell in the range of 196 to 201 °C. Under `CCOC(=O)c1ccc(N2C(=O)/C(=N\O)C(/C(=N\O)c3ccc(OC)cc3)C2c2ccccc2)cc1` (stereo not drawn) [Example I-226] stands 219 to 221 °C (dec.).

Take `CO/N=C(\C)c1ccc(N2C(=O)C(O)=C(C(=O)c3ccc(OC)cc3)C2c2ccc(F)cc2)cc1` (stereo not drawn) [Example I-227]: the melting point fell in the range of 221 to 224 °C. To `COc1ccc(-c2n[nH]c3c2C(c2ccc(F)cc2)N(c2ccc(C(F)(F)F)cc2)C3=O)cc1` (stereo not drawn) [Example I-228] belongs 217 to 218 °C. To `COc1ccc(C2=NCCNC3=C2C(c2ccc(F)cc2)N(c2ccc(C(F)(F)F)cc2)C3=O)cc1` (stereo not drawn) [Example I-229] belongs 213 to 215 °C; to `CC(C)(C)C1=NCCNC2=C1C(C1CCCCC1)N(c1ccc(-c3ccon3)cc1)C2=O` (stereo not drawn) [Example I-230], 229 to 230 °C; to `COc1ccc(C(=O)C2=C(O)C(=O)N(c3ccc(-c4noc(C)n4)cc3)C2C2CCCCC2)cc1` (stereo not drawn) [Example I-231], 245 to 248 °C. To `CCC(CC)C1C(C(=O)c2ccc(OC)cc2)=C(O)C(=O)N1c1ccc(-c2noc(C)n2)cc1` (stereo not drawn) [Example I-232] belongs 223 to 225 °C; to `COc1ccc(C(=O)C2=C(O)C(=O)N(c3ccc(C4=NCCS4)cc3)C2C2CCCCC2)cc1` (stereo not drawn) [Example I-233], 247 to 250 °C; to `CCC(CC)C1C(C(=O)c2ccc(OC)cc2)=C(O)C(=O)N1c1ccc(C2=NCCS2)cc1` (stereo not drawn) [Example I-234], 230 to 233 °C. `COc1ccc(C(=O)C2=C(O)C(=O)N(c3ccc(-c4ccon4)cc3)C2c2ccccn2)cc1` (stereo not drawn) [Example I-236] yielded a melting point of 232 to 234 °C. The compound `COc1ccc(C(=O)C2=C(O)C(=O)N(c3ccc(Br)cc3)C2c2ccccc2)cc1` (stereo not drawn) [Example I-237] displayed a melting point of 233 to 236 °C.

In turn, `COc1ccc(C(=O)C2=C(O)C(=O)N(c3ccc(OC)cc3)C2c2ccc(F)cc2)cc1` (stereo not drawn) [Example I-238] displayed a melting point of 245 to 247 °C.

In turn, `COc1ccc(C(=NO)C2=C(OCc3ccccc3)C(=O)N(c3ccc(C(F)(F)F)cc3)C2c2ccccc2)cc1` (stereo not drawn) [Example I-250] returned a melting point of 197 to 204 °C. Under `COc1ccccc1C1c2c(C(C)(C)C)n[nH]c2C(=O)N1c1cccc(-c2ccon2)c1` (stereo not drawn) [II-8] stands 202 °C. To `COC1=C(C(=O)C(C)(C)C)C(c2ccccc2OC)N(c2ccc(-c3ccon3)cc2)C1=O` (stereo not drawn) [II-156] belongs 136 to 137 °C.

For orientation: melting point means the temperature of the solid-liquid transition.
